What was measured:
[1] = Antagonist screening for pea protein off-notes on VAS aroma blending device, off-note Ex. D; set-up: key to Off-note Ex. D masking effect: +++ being most effective; ++ in the middle; + some effect; +/− being in between; − being no effect; conditions: off-note channel 4, 0.10% in MCT, flow 15; antagonist channel conc. as in Table 2 c2
Procedure: (§1) In one embodiment, the screening step is carried out using the above described aroma blending device as follows: each off-note molecule(s) identified from a target non-animal derived protein may be loaded into its own individual cartridge or channel (for example, propyl-iso-2-methoxy-3-pyrazine may be loaded into cartridge/channel #1, and isobutyl-3-methoxy-2-pyrazine may be loaded into cartridge/channel #2, etc.); next, the target non-animal protein is diluted as will be discussed below and may be loaded into its own individual cartridge/channel, for example, cartridge/channel #6 to act as the control or base; next, each antagonist candidate molecule that has been identified may be loaded into its own individual cartridge/channel (for example, molasses distillate may be loaded into cartridge/channel #7 and bisabolene may be loaded into cartridge/channel #8, etc). Next, the gas flow on the off-note molecule containing cartridge/channel is first opened, followed by one of the antagonist candidate molecule containing cartridges/channels. The intensity of the flow of the antagonist candidate molecule containing cartridge/channel is adjusted until the off-note is canceled or neutralized by the antagonist candidate molecule, i.e neutralization concentration. This process is repeated for each antagonist candidate molecule containing cartridges/channels so that all of the potential antagonist candidate molecules are screened.
(§2) Selection and screening of the antagonist molecules was performed using the VAS aroma blending device. As described above, each off-note molecule from Table 1 was loaded into its own individual cartridge or channel as shown in Table 2 (#'s 1-5). Each off-note molecule was diluted with medium-chain triglyceride (“MCT”) prior to loading into the cartridge/channel. Next, the target non-animal protein was diluted at 2% plus 0.1% xanthan gum in water with a small amount of antifoam agent (0.01%) and was placed into a cartridge/channel (#21). Each antagonist candidate molecule was then diluted with MCT in a pre-determined concentration and was loaded into a cartridge/channel as shown in Table 2 (#'s 6-20). Next, the gas flow (between 0 to 500 ml/min) on the off-note molecule containing cartridge/channel is first opened, followed by one of the antagonist candidate molecule containing cartridges/channels. The intensity of the flow of the antagonist candidate molecule containing cartridge/channel is adjusted until the off-note is canceled or neutralized by the antagonist candidate molecule, i.e neutralization concentration. This process is repeated for each antagonist candidate molecule containing cartridges/channels so that all of the potential antagonist candidate molecules are screened.
(§3) The numeric number in the column refers the flow rate on VAS aroma blending device.

[2] = Antagonist screening for pea protein off-notes on VAS aroma blending device, off-note Ex. A; set-up: key to Off-note Ex. A masking effect: +++ being most effective; ++ in the middle; + some effect; +/− being in between; − being no effect; conditions: off-note channel 1, 0.01% in MCT, flow 300; antagonist channel conc. as in Table 2 c2
Procedure: as §1, §2, §3

[3] = Antagonist screening for pea protein off-notes on VAS aroma blending device, off-note Ex. B; set-up: key to Off-note Ex. B masking effect: +++ being most effective; ++ in the middle; + some effect; +/− being in between; − being no effect; conditions: off-note channel 2, 0.001% in MCT, flow 150; antagonist channel conc. as in Table 2 c2
Procedure: as §1, §2, §3

[4] = Antagonist screening for pea protein off-notes on VAS aroma blending device, off-note Ex. E; set-up: key to Off-note Ex. E masking effect: +++ being most effective; ++ in the middle; + some effect; +/− being in between; − being no effect; conditions: off-note channel 5, 1.0% in MCT, flow 150; antagonist channel conc. as in Table 2 c2
Procedure: as §1, §2, §3

[5] = Antagonist screening for pea protein off-notes on VAS aroma blending device, off-note Ex. C; set-up: key to Off-note Ex. C masking effect: +++ being most effective; ++ in the middle; + some effect; +/− being in between; − being no effect; conditions: off-note channel 3, 0.01% in MCT, flow 185; antagonist channel conc. as in Table 2 c2
Procedure: as §1, §2, §3

C=CCOC(=O)CCC1CCCCC1 [Ally1 Cyclohexyl Proprionate]
Off-note Ex. D masking effect [1]: − | Off-note Ex. A Flow Rate (antagonist channel) [2]: 165 mL/min | Off-note Ex. A masking effect [2]: +/− | Off-note Ex. B masking effect [3]: − | Off-note Ex. E Flow Rate (antagonist channel) [4]: 175 mL/min | Off-note Ex. E masking effect [4]: ++ | Off-note Ex. C Flow Rate (antagonist channel) [5]: 100 mL/min | Off-note Ex. C masking effect [5]: +++

CCOC(=O)CCC(=O)OCC [Diethyl Succinate]
Off-note Ex. D Flow Rate (antagonist channel) [1]: 200 mL/min | Off-note Ex. D masking effect [1]: ++ | Off-note Ex. A Flow Rate (antagonist channel) [2]: 250 mL/min | Off-note Ex. A masking effect [2]: ++ | Off-note Ex. B Flow Rate (antagonist channel) [3]: 300 mL/min | Off-note Ex. B masking effect [3]: ++ | Off-note Ex. C Flow Rate (antagonist channel) [5]: 200 mL/min | Off-note Ex. C masking effect [5]: +/−

CCCCCCCCCCCCCCCC(=O)OCC [Ethyl Palmitate]
Off-note Ex. D masking effect [1]: − | Off-note Ex. A masking effect [2]: − | Off-note Ex. B Flow Rate (antagonist channel) [3]: 100 mL/min | Off-note Ex. E Flow Rate (antagonist channel) [4]: 300 mL/min | Off-note Ex. E masking effect [4]: + | Off-note Ex. C Flow Rate (antagonist channel) [5]: 35 mL/min | Off-note Ex. C masking effect [5]: ++

CCOC(=O)C(C)O (stereo not drawn) [Ethyl lactate]
Off-note Ex. D Flow Rate (antagonist channel) [1]: 200 mL/min | Off-note Ex. D masking effect [1]: ++ | Off-note Ex. A Flow Rate (antagonist channel) [2]: 90 mL/min | Off-note Ex. A masking effect [2]: +++ | Off-note Ex. B Flow Rate (antagonist channel) [3]: 100 mL/min | Off-note Ex. B masking effect [3]: +++ | Off-note Ex. C Flow Rate (antagonist channel) [5]: 200 mL/min | Off-note Ex. C masking effect [5]: ++

Bisabolene
Off-note Ex. D masking effect [1]: − | Off-note Ex. A masking effect [2]: − | Off-note Ex. B masking effect [3]: − | Off-note Ex. E Flow Rate (antagonist channel) [4]: 150 mL/min | Off-note Ex. E masking effect [4]: + | Off-note Ex. C masking effect [5]: −

Caryophyllene
Off-note Ex. D Flow Rate (antagonist channel) [1]: 150 mL/min | Off-note Ex. D masking effect [1]: ++ | Off-note Ex. A Flow Rate (antagonist channel) [2]: 100 mL/min | Off-note Ex. A masking effect [2]: +++ | Off-note Ex. B masking effect [3]: + | Off-note Ex. E Flow Rate (antagonist channel) [4]: 200 to 225 mL/min | Off-note Ex. E masking effect [4]: + | Off-note Ex. C masking effect [5]: −

— US20240341337A1, “METHOD FOR CREATING MASKING COMPOSITIONS” (GIVAUDAN SA, priority 2021, published 2024)
